Test [1] addresses T1, Vascular endothelial growth factor A, long form (Homo sapiens, UniProt P15692).
T1 sequence (P15692 whole entry): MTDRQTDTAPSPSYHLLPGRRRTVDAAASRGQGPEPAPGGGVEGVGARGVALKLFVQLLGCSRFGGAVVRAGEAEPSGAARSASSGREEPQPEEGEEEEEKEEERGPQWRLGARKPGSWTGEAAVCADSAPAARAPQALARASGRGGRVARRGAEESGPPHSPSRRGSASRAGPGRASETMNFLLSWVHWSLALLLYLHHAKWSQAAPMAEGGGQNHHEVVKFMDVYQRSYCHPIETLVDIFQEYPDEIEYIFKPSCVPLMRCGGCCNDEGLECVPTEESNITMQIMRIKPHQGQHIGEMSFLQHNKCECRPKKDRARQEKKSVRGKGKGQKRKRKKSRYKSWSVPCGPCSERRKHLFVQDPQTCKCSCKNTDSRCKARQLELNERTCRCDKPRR
Description: Binding affinity to human VEGF (13 to 107 residues) expressed in Escherichia coli Rosetta (DE3) cells assessed as dissociation constant at 37 degreeC by isothermal titration calorimetry analysis. A general note: ITC needs no label: the signal is the heat of the interaction.

Test [2] concerns the target T1, Vascular endothelial growth factor A, long form. Description: Binding affinity to human VEGF (13 to 107 residues) expressed in Escherichia coli Rosetta (DE3) cells assessed as dissociation constant at 20 degreeC by isothermal titration calorimetry analysis.
The target in test [3] is T2, Vascular endothelial growth factor A, long form (Homo sapiens) (UniProt P15692).
T2 sequence (whole entry): T1 sequence (P15692 whole entry)
Description: Binding affinity to human VEGF (13 to 107 residues) expressed in Escherichia coli Rosetta (DE3) cells assessed as Gibbs free energy change at 20 degreeC by isothermal titration calorimetry analysis.

Test [4] has as its target T2, Vascular endothelial growth factor A, long form (Homo sapiens). Description: Binding affinity to human VEGF (13 to 107 residues) expressed in Escherichia coli Rosetta (DE3) cells assessed as change in enthalpy at 20 degreeC by isothermal titration calorimetry analysis.
The target is the same in test [5]. The test can be described thus: Binding affinity to human VEGF (13 to 107 residues) expressed in Escherichia coli Rosetta (DE3) cells assessed as change in entropy at 20 degreeC by isothermal titration calorimetry analysis.
Test [6] shares this target. Description: Binding affinity to human VEGF (13 to 107 residues) expressed in Escherichia coli Rosetta (DE3) cells assessed as change in entropy at 37 degreeC by isothermal titration calorimetry analysis.
For test [7] the target is unchanged. Description: Binding affinity to human VEGF (13 to 107 residues) expressed in Escherichia coli Rosetta (DE3) cells assessed as change in enthalpy at 37 degreeC by isothermal titration calorimetry analysis.
The target is the same in test [8]. The test can be described thus: Binding affinity to human VEGF (13 to 107 residues) expressed in Escherichia coli Rosetta (DE3) cells assessed as Gibbs free energy change at 37 degreeC by isothermal titration calorimetry analysis.
Test [9] has the same target. The test can be described thus: Binding affinity to human VEGF (13 to 107 residues) expressed in Escherichia coli Rosetta (DE3) cells assessed as change in heat capacity at 20 degreeC by isothermal titration calorimetry analysis.

Starred links: 1 amine or outer side, 2 acyl side, 3 side chain; linkers in the order of their positions; H or OH if unused. Positions of bridges follow the written chain, without caps; N, C: chain ends. Residues, ends and D or L forms follow the SMILES beside them. Chains are numbered I, II in the order given. CO(CH2CH2O)13CH2CH2CO = O=C(CCOCCOCCOCCOCCOCCOCCOCCOCCOCCOCCOCCOCCOCCC(=O)[*:2])[*:1]; CO(CH2CH2O)9CH2CH2CO = O=C(CCOCCOCCOCCOCCOCCOCCOCCOCCOCCC(=O)[*:2])[*:1]

A word on the Kd: it is the free concentration of one partner at which half of the binding sites on the other are occupied at equilibrium, for simple one-to-one binding.

Regarding `CC[C@H](C)[C@@H]1NC(=O)[C@H](CC(=O)O)NC(=O)[C@@H](NC(C)=O)CSSC[C@@H]2NC(=O)[C@H](CCCCNC(=O)C[C@@H](C(=O)N[C@@H](CC(C)C)C(N)=O)NC(=O)[C@H](CCC(=O)O)NC(=O)[C@H](Cc3ccccc3)NC2=O)NC(=O)[C@H](Cc2c[nH]c3ccccc23)NC(=O)[C@H](CCC(=O)O)NC(=O)[C@H](Cc2c[nH]c3ccccc23)NC(=O)[C@H](CCCCN)NC(=O)[C@H](C(C)C)NC(=O)[C@H](Cc2cnc[nH]2)NC1=O` (Ac-CDIHVKWEWKCFEDL-NH2; disulfide 1-11; lactam 10-14), the dissociation constant (Kd) in test [1] came out at 573 nM; in test [2] it was 129 nM.

Regarding `CC[C@H](C)[C@@H]1NC(=O)[C@H](CC(=O)O)NC(=O)[C@@H](NC(C)=O)CSSC[C@@H]2NC(=O)[C@H](CCCCNC(=O)C[C@@H](C(=O)N[C@@H](CC(C)C)C(N)=O)NC(=O)[C@H](CCC(=O)O)NC(=O)[C@H](Cc3ccccc3)NC2=O)NC(=O)[C@H](Cc2c[nH]c3ccccc23)NC(=O)[C@H](CCC(=O)O)NC(=O)[C@H](Cc2c[nH]c3ccccc23)NC(=O)[C@H](CCCCNC(=O)CCOCCOCCOCCOCCOCCOCCOCCOCCOCCOCCOCCOCCOCCC(=O)NCCCC[C@@H]2NC(=O)[C@H](C(C)C)NC(=O)[C@H](Cc3cnc[nH]3)NC(=O)[C@H]([C@@H](C)CC)NC(=O)[C@H](CC(=O)O)NC(=O)[C@@H](NC(C)=O)CSSC[C@@H]3NC(=O)[C@H](CCCCNC(=O)C[C@@H](C(=O)N[C@@H](CC(C)C)C(N)=O)NC(=O)[C@H](CCC(=O)O)NC(=O)[C@H](Cc4ccccc4)NC3=O)NC(=O)[C@H](Cc3c[nH]c4ccccc34)NC(=O)[C@H](CCC(=O)O)NC(=O)[C@H](Cc3c[nH]c4ccccc34)NC2=O)NC(=O)[C@H](C(C)C)NC(=O)[C@H](Cc2cnc[nH]2)NC1=O` (I: Ac-CDIHVKWEWKCFEDL-NH2 / II: Ac-CDIHVKWEWKCFEDL-NH2; disulfide I:1-I:11, II:1-II:11; linker I:6-II:6 via CO(CH2CH2O)13CH2CH2CO; lactam I:10-I:14, II:10-II:14), the deltaG in [3] and in test [8] was -10.3 kcal/mol throughout. Moreover, the Kd came to 56 nM in [1] and 20 nM in test [2]. The deltaH was -36.3 kcal/mol in [4] and -46 kcal/mol in [7]. Besides, the -TdeltaS in [5] is 26 kcal/mol; in test [6] it was 35.7 kcal/mol. Besides, in [9], the DeltaCp was -0.57 kcal/mol/K.

With `CC[C@H](C)[C@@H]1NC(=O)[C@H](CC(=O)O)NC(=O)[C@@H](NC(C)=O)CSSC[C@@H]2NC(=O)[C@H](CCCCNC(=O)C[C@@H](C(=O)N[C@@H](CC(C)C)C(N)=O)NC(=O)[C@H](CCC(=O)O)NC(=O)[C@H](Cc3ccccc3)NC2=O)NC(=O)[C@H](Cc2c[nH]c3ccccc23)NC(=O)[C@H](CCC(=O)O)NC(=O)[C@H](Cc2c[nH]c3ccccc23)NC(=O)[C@H](CCCCNC(=O)CCOCCOCCOCCOCCOCCOCCOCCOCCOCCC(=O)NCCCC[C@@H]2NC(=O)[C@H](C(C)C)NC(=O)[C@H](Cc3cnc[nH]3)NC(=O)[C@H]([C@@H](C)CC)NC(=O)[C@H](CC(=O)O)NC(=O)[C@@H](NC(C)=O)CSSC[C@@H]3NC(=O)[C@H](CCCCNC(=O)C[C@@H](C(=O)N[C@@H](CC(C)C)C(N)=O)NC(=O)[C@H](CCC(=O)O)NC(=O)[C@H](Cc4ccccc4)NC3=O)NC(=O)[C@H](Cc3c[nH]c4ccccc34)NC(=O)[C@H](CCC(=O)O)NC(=O)[C@H](Cc3c[nH]c4ccccc34)NC2=O)NC(=O)[C@H](C(C)C)NC(=O)[C@H](Cc2cnc[nH]2)NC1=O` (I: Ac-CDIHVKWEWKCFEDL-NH2 / II: Ac-CDIHVKWEWKCFEDL-NH2; disulfide I:1-I:11, II:1-II:11; linker I:6-II:6 via CO(CH2CH2O)9CH2CH2CO; lactam I:10-I:14, II:10-II:14), the values for the deltaG in test [3] and in test [8] were -10.2 kcal/mol and -10 kcal/mol, respectively. Besides, the values for the dissociation constant (Kd) in test [1] and in test [2] were 90 nM and 26 nM, respectively. In addition, the figures for the deltaH in [4] and in test [7] were -32.8 kcal/mol and -42.1 kcal/mol, respectively. For the same molecule, the -TdeltaS in test [5] is 22.6 kcal/mol; in test [6], 32.1 kcal/mol. Also, in test [9], the DeltaCp was -0.55 kcal/mol/K.

For `COc1ccc([C@H]2CNC(=O)C2)cc1OC1CCCC1` [S-ROLIPRAM], the deltaG in test [3] was -12.3 kcal/mol. Further, in test [4], the deltaH is -29.3 kcal/mol. Further, the -TdeltaS in [5] came out at 17 kcal/mol.

Source of the values: ChEMBL document CHEMBL5346952, “Dimer Peptide Ligands of Vascular Endothelial Growth Factor: Optimizing Linker Length for High Affinity and Antiangiogenic Activity” (J Med Chem, 2023).
